Biological target: indoleamine 2, 3-dioxygenase (IDO1) (Homo sapiens, UniProt P14902)
Test: PBMC IDO1 assay (kynurenine via mass spectrometry)
Type: cell-based
Conditions: not given
Method in brief: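 Human PBMCs (50,000/well) stimulated with IFN-γ 100 ng/ml and LPS 50 ng/ml to induce IDO1, exposed to 11-point 3-fold compound dilutions for 2 days at 37° C. Supernatant kynurenine measured by RapidFire MS relative to internal standard; XC50 from four-parameter fit. Cytotoxicity tracked in parallel by ATP luminescence.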

indoleamine 2, 3-dioxygenase (IDO1), sequence (P14902 whole entry): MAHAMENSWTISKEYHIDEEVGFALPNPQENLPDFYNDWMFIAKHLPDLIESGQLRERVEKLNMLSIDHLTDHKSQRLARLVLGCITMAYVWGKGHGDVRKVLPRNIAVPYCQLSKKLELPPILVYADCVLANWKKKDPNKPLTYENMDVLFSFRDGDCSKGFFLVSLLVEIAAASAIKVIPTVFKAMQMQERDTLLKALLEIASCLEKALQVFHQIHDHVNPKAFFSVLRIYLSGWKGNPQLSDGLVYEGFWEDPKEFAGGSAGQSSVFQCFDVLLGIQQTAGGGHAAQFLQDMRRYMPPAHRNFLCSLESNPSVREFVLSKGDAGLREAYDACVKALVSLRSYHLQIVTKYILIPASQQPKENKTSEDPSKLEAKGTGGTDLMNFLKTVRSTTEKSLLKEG

SMILES | IC50
O=C(N[C@H](CCCO)C1CCN(C(=O)Oc2cccnc2F)CC1)c1ccc(F)cc1 [Example 97, 2-fluoropyridin-3-yl 4-[(1R)-1-[(4-fluorophenyl)formamido]-4-hydroxybutyl]piperidine-1-carboxylate] | 1260 nM
Cc1ncccc1OC(=O)N1CCC([C@@H](CC(C)C)NC(=O)c2ccc(Cl)cc2)CC1 [Example 104, (R)-2-methylpyridin-3-yl 4-(1-(4-chlorobenzamido)-3-methylbutyl)piperidine-1-carboxylate] | 1.26 nM
COc1ncccc1OC(=O)N1CCC([C@@H](CC(C)C)NC(=O)c2ccc(F)cc2)CC1 [Example 105, (R)-2-methoxypyridin-3-yl 4-(1-(4-fluorobenzamido)-3-methylbutyl)piperidine-1-carboxylate] | 1.26 nM

Same assay, conditions: human PBMC stimulated with IFN-γ and LPS, 2 days, kynurenine by mass spectrometry; recorded as pIC50

SMILES | PBMC PXC50_
COc1ccc(OC(=O)N2CCC(C(NC(=O)c3ccc(F)cc3)c3ccncc3)CC2)cn1 (stereo not shown) [Example 99, 6-methoxpyridin-3-yl 4-{[(4-fluorophenyl)formamido](pyridin-4-yl)methyl}piperidine-1-carboxylate] | 5.6

Same assay, conditions: human PBMC stimulated with IFN-γ and LPS, 2 days, kynurenine by mass spectrometry; recorded as pIC50; read-out: PBMC PXC50_ (converted)

SMILES | IC50
N#Cc1ccc(C(=O)NC(c2ccccc2)C2CCN(C(=O)Oc3ccccc3)CC2)nc1 (stereo not shown) [Example 89, phenyl 4-{[(5-cyanopyridin-2-yl)formamido](phenyl)methyl}piperidine-1-carboxylate] | 631 nM
O=C(N[C@@H](C1CC1)C1CCN(C(=O)Oc2ccccc2)CC1)c1ccc(Cl)s1 [Example 91, phenyl 4-[(S)-[(5-chlorothiophen-2-yl)formamido](cyclopropyl)methyl]piperidine-1-carboxylate] | 631 nM
Cc1c(F)cccc1OC(=O)N1CCC([C@H](C)NC(=O)c2ccc(Cl)s2)CC1 [Example 92, 3-fluoro-2-methylphenyl 4-[(1S)-1-[(5-chlorothiophen-2-yl)formamido]ethyl]piperidine-1-carboxylate] | 631 nM
COc1cc(OC(=O)N2CCC(C(NC(=O)c3ccc(F)cc3)c3ccncc3)CC2)ccn1 (stereo not shown) [Example 93, 2-methoxpyridin-4-yl 4-{[(4-fluorophenyl)formamido](pyridin-4-yl)methyl}piperidine-1-carboxylate] | 794 nM
O=C(NC(c1ccncc1)C1CCN(C(=O)Oc2ccncc2)CC1)c1ccc(F)cc1 (stereo not shown) [Example 94, pyridin-4-yl 4-{[(4-fluorophenyl)formamido](pyridin-4-yl)methyl}piperidine-1-carboxylate] | 1000 nM
C[C@H](NC(=O)c1ccc(Cl)s1)C1CCN(C(=O)Oc2ccccc2)CC1 [Example 95, phenyl 4-[(1S)-1-[(5-chlorothiophen-2-yl)formamido]ethyl]piperidine-1-carboxylate] | 1000 nM
O=C(NC(c1ccncc1)C1CCN(C(=O)Oc2ccccn2)CC1)c1ccc(F)cc1 (stereo not shown) [Example 96, pyridin-2-yl 4-{[(4-fluorophenyl)formamido](pyridin-4-yl)methyl}piperidine-1-carboxylate] | 1260 nM
CC(C)(C)OC(=O)N1CCC(C(NC(=O)c2ccccc2)c2ccccc2)CC1 (stereo not shown) [Example 98, tert-butyl 4-[phenyl(phenylformamido)methyl]piperidine-1-carboxylate] | 1580 nM
O=C(NC(c1ccncc1)C1CCN(C(=O)OC2CCCCC2)CC1)c1ccc(F)cc1 (stereo not shown) [Example 100, cyclohexyl 4-{[(4-fluorophenyl)formamido](pyridin-4-yl)methyl}piperidine-1-carboxylate] | 3160 nM

Next, values leading:

IC50 | SMILES
3160 nM | Cc1c(OC(=O)N2CCC([C@@H](C)NC(=O)c3ccc(Cl)s3)CC2)ccnc1F [Example 101, 2-fluoro-3-methylpyridin-4-yl 4-[(1R)-1-[(5-chlorothiophen-2-yl)formamido]ethyl]piperidine-1-carboxylate]
5010 nM | CC(C)(C)OC(=O)N1CCC(C(NC(=O)c2cccnc2)c2ccccc2)CC1 (stereo not shown) [Example 102, tert-butyl 4-{phenyl[(pyridin-3-yl)formamido]methyl}piperidine-1-carboxylate]
10000 nM | NC(=O)c1ccc(C(=O)NC(c2ccccc2)C2CCN(C(=O)Oc3ccccc3)CC2)nc1 (stereo not shown) [Example 103, phenyl 4-{[(5-carbamoylpyridin-2-yl)formamido](phenyl)methyl}piperidine-1-carboxylate]
1.58 nM | COc1c(F)cccc1OC(=O)N1CCC([C@@H](CC(C)C)NC(=O)c2ccc(F)cc2)CC1 [Example 106, (R)-3-fluoro-2-methoxyphenyl 4-(1-(4-fluorobenzamido)-3-methylbutyl)piperidine-1-carboxylate]
1.58 nM | Cc1ncnc(C)c1OC(=O)N1CCC([C@@H](CC(C)C)NC(=O)c2ccc(Cl)cc2)CC1 [Example 107, (R)-4,6-dimethylpyrimidin-5-yl 4-(1-(4-chlorobenzamido)-3-methylbutyl)piperidine-1-carboxylate]
6.31 nM | CC(C)C[C@@H](NC(=O)c1cccc2cn[nH]c12)C1CCN(C(=O)Oc2ccccc2)CC1 [Example 109, (R)-phenyl 4-(1-(1H-indazole-7-carboxamido)-3-methylbutyl)piperidine-1-carboxylate]
12.6 nM | CC(C)CC(NC(=O)c1cccc2cn[nH]c12)C1CCN(C(=O)Oc2ccccc2)CC1 (stereo not shown) [Example 110, phenyl 4-(1-(1H-indazole-7-carboxamido)-3-methylbutyl)piperidine-1-carboxylate]
63.1 nM | COc1ccc([C@@H](NC(=O)c2ccc(Cl)cc2)C2CCN(C(=O)Oc3ccccc3)CC2)cn1 [Example 111, (S)-phenyl 4-((4-chlorobenzamido)(6-methoxypyridin-3-yl)methyl)piperidine-1-carboxylate]
10 nM | Cc1ncnc(C)c1OC(=O)N1CCC([C@@H](NC(=O)c2ccc(Cl)s2)C2CC2)CC1 [Example 112, (S)-4,6-dimethylpyrimidin-5-yl 4-((5-chlorothiophene-2-carboxamido)(cyclopropyl)methyl)piperidine-1-carboxylate]

System: conversion of T cells into CD4+FoxP3+ Tregs
Test: not given
Conditions: co-culture of DCs and naive CD4+CD25- T cells; cited from earlier work

SMILES | conversion of T cells into CD4+FoxP3+ Tregs
NS(=O)(=O)NCCNc1nonc1C(=NO)Nc1ccc(F)c(Br)c1 [INCB204360] | blocked the conversion

System: PAN02 pancreatic cells
Test: not given
Conditions: immunocompetent mice, orally dosed; cited from earlier work

SMILES | inhibition of tumor growth
NS(=O)(=O)NCCNc1nonc1C(=NO)Nc1ccc(F)c(Br)c1 [INCB204360] | significant dose-dependent inhibition of tumor growth

Same assay, conditions: tumor implanted in immune-deficient mice, orally dosed; cited from earlier work

SMILES | effect against the same tumor
NS(=O)(=O)NCCNc1nonc1C(=NO)Nc1ccc(F)c(Br)c1 [INCB204360] | without effect

From patent US10927078B2, “Modulators of indoleamine 2,3-dioxygenase” (GLAXOSMITHKLINE INTELLECTUAL PROPERTY DEVELOPMENT LIMITED, priority 2017, dated 2021)
